Reference: patent publication US20180296588A1, “COMBINATION THERAPY FOR TREATING VIRAL INFECTIONS” (ContraVir Pharmaceuticals, Inc., priority 2017, published 2018)
“Also recorded” adds a separate entry of the source. Where two headings read alike, the source gives them in different places.

Legend:
[1] = tested on: HBV DNA replication in HepAD38 cells; assay: Inhibition of intracellular HBV DNA replication in HepAD38 cells (PCR); assay type: cell-based; conditions: Hepatitis B virus, HePAD38, read-out: IC50 for Compound II, AD38 cells
Method: (§1) The antiviral activity of Compound I and Compound II towards HBV was tested in various cell lines (HepAD38, HepDE19 and HepDES19). The HepAD38 cell line is derived from the HepG2 cell line and engineered to stably maintain HBV (see Ladner et al., Antimicrobial Agents and Chemotherapy, 1997, 41, 1715-1720, which is incorporated herein by reference in its entirety). DE19 and DES19 cell lines are human hepatoma derived cell lines (see Guo et al. J. Virol 2007, 81, 12472-84, which is incorporated herein by reference in its entirety). Active HBV replication in the cells was suppressed by inclusion of tetracycline in the cell culture medium, which binds to a tetracycline-sensitive promoter, and induced by removal of tetracycline. HBV replication was quantified by measuring the amount of HBV DNA in the cells.
(§2) Compound I and Compound II were applied to induced cells (i.e., cells without tetracycline), either alone or in combination at various concentrations. Next, intracellular DNA was isolated and HBV DNA was measured by polymerase chain reaction (PCR). The percent inhibition of HBV DNA was examined over the concentration ranges of 0-320 nM for Compound I and 0-640 nM for Compound II. Concentration versus effect curves were constructed for both drugs (FIGS. 1A and 1B, 2A and 2B, and 3A and 3B). […] See FIGS. 1B, 2B, and 3B (curves where [Compound II]=0).
(§3) The level of reduction in intracellular HBV DNA by the various combinations of Compound I and II as plotted in FIGS. 1 A and 1B, 2A and 2B, and 3A and 3B, was analyzed using the Shipman-Prichard synergy scoring program (MacSynergy™ II program, Prichard et al. Antiviral Research 1990), wherein the experimentally observed effect of each combination is compared to the theoretical, additive inhibition. The comparison is used to determine combination scores (effect volumes) that represent either synergistic (positive scores) or antagonistic (negative scores) effects. All the positive and negative scores are summed to calculate overall synergy and antagonism scores that reflect the entire concentration spectrum of the two drugs. The magnitude of the scores reflect the degree of synergism/antagonism and the likelihood of the synergistic/antagonistic activities being important in vivo, according to the following four categories: (1) Synergy/Antagonism Volume=0-25 (log volume <2): insignificant synergy/antagonism (i.e., only additive effects); (2) Synergy/Antagonism Volume=25-50 (log volume 2-5): minor but significant amount of synergy/antagonism; (3) Synergy/Antagonism Volume=50-100 (log volume 5-9): moderate synergy/antagonism that may be important in vivo; (4) Synergy/Antagonism Volume >100 (log volume >9): stronger synergy/antagonism that is probably important in vivo. IC50 values for Compound I in combination with different concentrations of Compound II, and Compound II in combination with different concentrations of Compound I, are presented in Tables 6 and 7, respectively.

[2] = tested on: HBV DNA replication in DE19 cells; assay: Inhibition of intracellular HBV DNA replication in HepDE19 cells (PCR); assay type: cell-based; conditions: Hepatitis B virus, HepDE19, read-out: IC50 for Compound II, DE19 cells
Method: as §1, §2, §3

[3] = tested on: HBV DNA replication in AD38, DES19 and DE19 cells; assay: In vitro combination study, statements covering AD38, DES19 and DE19 cells together; assay type: cell-based, hepatitis B virus; conditions: Compound I 5-320 nM and/or Compound II 10-640 nM; FIGS. 1-3
Method: The antiviral activity of Compound I and Compound II towards HBV was tested in various cell lines (HepAD38, HepDE19 and HepDES19). […] Active HBV replication in the cells was suppressed by inclusion of tetracycline in the cell culture medium, which binds to a tetracycline-sensitive promoter, and induced by removal of tetracycline. HBV replication was quantified by measuring the amount of HBV DNA in the cells.
The comparison is used to determine combination scores (effect volumes) that represent either synergistic (positive scores) or antagonistic (negative scores) effects. All the positive and negative scores are summed to calculate overall synergy and antagonism scores that reflect the entire concentration spectrum of the two drugs. […]

[4] = tested on: HBV DNA replication in DES19 cells; assay: Inhibition of intracellular HBV DNA replication in HepDES19 cells (PCR); assay type: cell-based; conditions: Hepatitis B virus, HepDES19, read-out: IC50 for Compound II, DES19 cells
Method: as §1, §2, §3

HBV = assay: Anti-HBV effects in the HBV transgenic mouse model; assay type: in vivo, HBV transgenic mice
Method: Compound I and Compound II were administered by once-daily oral gavage for 16 days to HBV transgenic mice which replicated HBV from a 1.3× overlength HBV genome integrated into the mouse genome. Expression occurred mostly in hepatocytes.
Treatment Groups (n=8/Group):
After 16 days of dosing, livers and serum were harvested and the following parameters were measured: a) HBV DNA by quantitative PCR (liver and serum) b) HBsAg by ELISA (liver and serum) c) HBeAg by ELISA (serum)

SMILES: CCCCCCCCCCCCCCCCOCCCOP(=O)(O)CO[C@H](C)Cn1cnc2c(N)ncnc21 [Compound II, 3-(hexadecyloxy)propyl hydrogen ((R)-1-(6-amino-9H-purin 9-yl)propan-2-yloxy)methylphosphonate]
- IC50 ([1]; Compound I 0 nM): 248 nM
- IC50 ([1]; Compound I 5 nM): 259 nM
- IC50 ([1]; Compound I 10 nM): 255 nM
- IC50 ([1]; Compound I 20 nM): 232 nM
- IC50 ([1]; Compound I 40 nM): 232 nM
- IC50 ([1]; Compound I 80 nM): 229 nM
- IC50 ([1]; Compound I 160 nM): 104 nM
- IC50 ([1]; Compound I 320 nM): 99.7 nM
- IC50 ([2]; Compound I 0 nM): 253 nM
- IC50 ([2]; Compound I 5 nM): 270 nM
- IC50 ([2]; Compound I 10 nM): 255 nM
- IC50 ([2]; Compound I 20 nM): 213 nM
- IC50 ([2]; Compound I 40 nM): 237 nM
- IC50 ([2]; Compound I 80 nM): 226 nM
- IC50 ([2]; Compound I 160 nM): 83.9 nM
- IC50 ([2]; Compound I 320 nM): 110 nM
- intracellular HBV DNA compared to induced cells in the absence of the drug [3]: reduced intracellular HBV DNA in a concentration-dependent manner
- IC50 ([4]; Compound I 0 nM): 252 nM
- IC50 ([4]; Compound I 5 nM): 237 nM
- IC50 ([4]; Compound I 10 nM): 228 nM
- IC50 ([4]; Compound I 20 nM): 180 nM
- IC50 ([4]; Compound I 40 nM): 190 nM
- IC50 ([4]; Compound I 80 nM): 188 nM
- IC50 ([4]; Compound I 160 nM): 86.6 nM
- IC50 ([4]; Compound I 320 nM): 63.2 nM
- serum HBsAg (HBV; Compound II alone (5 or 10 mg/kg/day) or with low-dose Compound I (10 mg/kg/day), oral, 16 days, FIG. 7): did not affect serum HBsAg
- liver HBsAg (HBV; alone or in combination, oral, 16 days, FIG. 8): did not affect
- serum HBV DNA (HBV; alone or in combination, oral, 16 days, FIG. 9): did not affect
- serum HBeAg (HBV; alone or in combination, oral, 16 days, FIG. 10): did not affect
- liver HBV DNA (copies per mg liver) (HBV; once-daily oral gavage 16 days, Compound I 10 or 50, Compound II 5 or 10 mg/kg/day, combination 10+5, FIG. 6): decreased liver HBV DNA; also recorded: highly efficacious
